The record followed here is publication PMC10381309 (Journal of Fungi, 2023).

Converted amounts (≈) assume the structure as drawn.

The test system of data set [1] is Cladophialophora carrionii (CFP 00910). As to conditions: C. carrionii; PDA; 7 days, 37 °C; albendazole at ½ MIC.
Experimental: (§3) At the end of the seven days of incubation at 37 °C, the plates were read visually. The aspect of the colonies supplemented with albendazole were compared to those of the positive melanin and inhibition melanin controls, to determine whether the color of the albendazole-supplemented cultures resembled the positive DHN-melanin or the melanin inhibition control. Pictures of the colonies were captured using a Canon EOS Rebel T7+ digital camera.
In data set [2] the test system is Fonsecaea pedrosoi (CFP 00791). To be noted: F. pedrosoi; PDA; 7 days, 37 °C; albendazole at ½ MIC.
Experimental: as §3
For data set [3], the system named is Exophiala heteromorpha (ATCC 28180). To be noted: E. heteromorpha; PDA; 7 days, 37 °C; albendazole at ½ MIC.
Experimental: as §3
Data set [4] has as its system Fonsecaea pedrosoi (CFP 00791). The experiment in a line: NIH Clinical Collection screening for antifungal activity (growth inhibition, OD 530 nm). The data set is classed as cell-based. To be noted: 10 µM; CFP00791 Fonsecaea pedrosoi isolate; 72–96 h; read-out: % Growth Inhibition. As for the experimental part:
These substances are part of the NIH Roadmap Molecular Libraries Screening Centers Network screening library, a collection of chemically diverse substances in Phase I-III clinical trials. Each substance was initially diluted to 1 mM in DMSO and stored at −20 °C until use. […] The final DMSO concentration corresponded to 0.5% v/v. The inoculum was prepared according to the protocol for filamentous fungi proposed by the European Committee on Antimicrobial Susceptibility Testing—EUCAST, with minor modifications. […] After growth, conidia were suspended in 3 mL of sterile distilled water with 0.1% Tween 20, vortexed, and the concentration adjusted to the 0.5 McFarland scale. The suspension was then diluted 1:10 in order to obtain a final working inoculum at 2–5 × 10^5 CFU/mL. Next, 100 µL of the inoculum was added to each well and the plates incubated at 35 °C for 72–96 h. Negative and positive controls consisted of culture medium alone and drug-free culture medium with the fungal inoculum previously described, respectively. Plates were read using a microplate reader (Epoch, Biotek, Wenusky, VT, USA) with a 530 nm filter to obtain the optical density. All plates were also visually read to confirm the equipment data. A calculation was performed to obtain the percentage of inhibition of fungal growth, according to the formula: (1 − (OD1/OD2)) × 100, where OD1 = optical density of the fungus in the presence of the drug; and OD2 = optical density of the growth control drug-free well.

For data set [5], the system named is Exophiala dermatitidis (ATCC 28869). The experiment in a line: Minimum fungicidal concentration determination. The data set is classed as cell-based. As to conditions: E. dermatitidis. The method, then: (§1) Minimum fungicidal concentration (MFC) was determined in triplicate by transferring a 5 μL aliquot from each well without fungal growth of the microdilution plates used for MIC determination, as described above, onto 2% glucose Sabouraud agar (Sigma Chemical Corporation). The MFC was determined as the lowest drug concentration without fungal growth on Sabouraud agar after five days of incubation at 35 °C. When the MFC/MIC ratio of a hit drug was 1 or 2, the substance was considered fungicidal against the pathogen. If this ratio was greater than 2, the hit drug was considered to be fungistatic.

Data set [6] has as its system Phialophora verrucosa (CFP 00937). Description: Minimum fungicidal concentration determination. It counts as cell-based. As to conditions: P. verrucosa. As for the experimental part:
as §1

In data set [7] the test system is Rhinocladiela similis (CFP 00790). The experiment in a line: Minimum fungicidal concentration determination. The data set is classed as cell-based. As to conditions: R. similis. The method, then:
as §1

In data set [8] the test system is Exophiala heteromorpha (ATCC 28180). The experiment in a line: Minimum fungicidal concentration determination. It counts as cell-based. As to conditions: E. heteromorpha. The method, then: as §1
Data set [9] concerns Fonsecaea pedrosoi (CFP 00791). Description: Minimum fungicidal concentration determination. The data set is classed as cell-based. As to conditions: F. pedrosoi. As for the experimental part: as §1
For data set [10], the system named is Fonsecaea nubica (CFP 00912). Description: Minimum fungicidal concentration determination. It counts as cell-based. To be noted: F. nubica. The method, then:
as §1

For data set [11], the system named is Fonsecaea monophora (CFP 00911). Description: Minimum fungicidal concentration determination. It counts as cell-based. To be noted: F. monophora. As for the experimental part: as §1
Data set [12] concerns Cladophialophora carrionii (CFP 00910). The experiment in a line: MIC determination (EUCAST, minor modifications). As to conditions: C. carrionii. The data set is classed as cell-based. The method, then: (§2) Minimum inhibitory concentrations (MICs) were determined using the method proposed by the European Committee on Antimicrobial Susceptibility Testing (EUCAST), with minor modifications. Hit drugs were serially diluted (80 μM to 0.15625 μM) in RPMI 1640 (twice concentrated, pH 7; supplemented with 2% glucose) buffered with MOPS in 96-well plates. The inoculums of all strains were prepared following the EUCAST protocol. Plates were incubated at 35 °C for 72–96 h. The MIC of the NCC substances was determined as the lowest concentration capable of inhibiting 100% of fungal growth when compared to the growth control well. MIC values were determined in duplicate.

Data set [13] deals with Exophiala dermatitidis (ATCC 28869). Description: MIC determination (EUCAST, minor modifications). It counts as cell-based. To be noted: E. dermatitidis. The method, then: as §2
Data set [14] has as its system Phialophora verrucosa (CFP 00937). Description: MIC determination (EUCAST, minor modifications). It counts as cell-based. As to conditions: P. verrucosa. As for the experimental part: as §2
Data set [15] concerns Rhinocladiela similis (CFP 00790). Description: MIC determination (EUCAST, minor modifications). It counts as cell-based. To be noted: R. similis. As for the experimental part: as §2
Data set [16] deals with Exophiala heteromorpha (ATCC 28180). Description: MIC determination (EUCAST, minor modifications). The data set is classed as cell-based. As to conditions: E. heteromorpha. The method, then:
as §2

The test system of data set [17] is Fonsecaea pedrosoi (CFP 00791). The experiment in a line: MIC determination (EUCAST, minor modifications). The data set is classed as cell-based. As to conditions: F. pedrosoi. The method, then:
as §2

For data set [18], the system named is Fonsecaea nubica (CFP 00912). The experiment in a line: MIC determination (EUCAST, minor modifications). The data set is classed as cell-based. To be noted: F. nubica. The method, then:
as §2

In data set [19] the test system is Fonsecaea monophora (CFP 00911). The experiment in a line: MIC determination (EUCAST, minor modifications). To be noted: F. monophora. It counts as cell-based. The method, then:
as §2

The next data set has as its system VERO cells (ATCC CCL-81). The experiment in a line: Cytotoxicity of hit drugs, MTT, 24 h. The data set is classed as cell-based. To be noted: African green monkey. The method, then:
VERO cells (ATCC® CCL-81, a kidney tissue derived from a normal adult African green monkey) were cultured in 199 medium with Earle’s salts supplemented with 100 U/mL of penicillin–100 µg/mL of streptomycin (Cultilab LTDA, São Paulo, Brazil) and 10% fetal bovine serum (FBS, Cultilab LTDA, Brazil) in an incubator at 37 °C with 5% CO2. Cells were subcultured in 25 or 75 cm^2 culture flasks once a week and the culture medium was also changed once a week. The cells used in the experiments were from passages 10 to 29 [42]. Cytotoxicity assays to assess cell viability were performed in 96-well plates with 5 × 10^4 cells/well that were exposed to hit drug solutions for 24 h at 37 °C in an incubator with 5% CO2. […]. A solution of 10% Tween 80 solution was used as the positive cellular death control. Wells with VERO cells receiving only the culture medium with or without 1% DMSO were also included as positive cellular growth controls.
The 3-(4,5-dimethylthiazol-2-yl)-2,5-diphenyltetrazolium bromide (MTT, Sigma-Aldrich®, USA) reagent dissolved in PBS, pH 7.4, was used to check cell viability. Results were read at 492 nm on a Thermo Scientific® Multiskan microplate spectrophotometer reader and expressed as percent cell viability in the culture medium after addition of a 10% Tween 80 solution.

For data set [20], the system named is Cladophialophora carrionii (CFP 00910). Description: Minimum fungicidal concentration determination. As to conditions: C. carrionii. It counts as cell-based. As for the experimental part:
The MFC was determined as the lowest drug concentration without fungal growth on Sabouraud agar after five days of incubation at 35 °C.

On to `Cc1cccc2sc3nncn3c12` [tricyclazole], for which the melanin production entry in data set [1] is “changes the color of colonies from dark green, gray or black (due to melanin) to reddish brown”; in data set [2], “changes the color of colonies from dark green, gray or black (due to melanin) to reddish brown”; in data set [3], “changes the color of colonies from dark green, gray or black (due to melanin) to reddish brown”.
With `COC(=O)Nc1nc2ccc(C(=O)c3ccccc3)cc2[nH]1` [Mebendazole], in [4], the inhibition at 10 µM turned out to be 83%. Also, the “MFC:MIC Ratio” value in data set [5] is recorded as greater than 4; in data set [6], 2; in data set [7] it was greater than 16; in data set [8], greater than 16; in data set [9], 1; in data set [10], greater than 16. Besides, the “MFC:MIC Ratio” value in data set [11] was 32; in [20], 1. Further, the MFC was greater than 80 µM in data set [5] (Exophiala dermatitidis, ATCC28869, read-out: MFC); 10 µM (≈ 2.95 µg/mL) in [6] (Phialophora verrucosa, read-out: MFC); greater than 80 µM in data set [7] (read-out: MFC); greater than 80 µM in data set [8] (Exophiala heteromorpha, ATCC28180, read-out: MFC); 5 µM (≈ 1.48 µg/mL) in data set [9] (Fonsecaea pedrosoi, read-out: MFC); greater than 80 µM in data set [10] (Fonsecaea nubica, read-out: MFC). In addition, the MFC came to 80 µM (≈ 23.6 µg/mL) in data set [11] (Fonsecaea monophora, read-out: MFC) and 2.5 µM (≈ 0.738 µg/mL) in [20] (Cladophialophora carrionii, read-out: MFC). Besides, the “fungicidal or fungistatic (MFC/MIC ratio)” value in [6] is listed as “fungicidal (When the MFC/MIC ratio of a hit drug was 1 or 2, the substance was considered fungicidal)”; in data set [9], “fungicidal (When the MFC/MIC ratio of a hit drug was 1 or 2, the substance was considered fungicidal)”; in data set [20] it was “fungicidal (When the MFC/MIC ratio of a hit drug was 1 or 2, the substance was considered fungicidal)”. Further, the “Selectivity Index (SI)” value is given as 135.59 in data set [12] (CC50 Vero 24 h / MIC); 16.94 in data set [13] (CC50 Vero 24 h / MIC); 67.79 in [14] (CC50 Vero 24 h / MIC); 67.79 in data set [15] (CC50 Vero 24 h / MIC); 67.79 in data set [16] (CC50 Vero 24 h / MIC); 67.79 in [17] (CC50 Vero 24 h / MIC). Further, the “Selectivity Index (SI)” value is 67.79 in data set [18] (CC50 Vero 24 h / MIC) and 135.59 in data set [19] (CC50 Vero 24 h / MIC). Besides, the MIC in [12] (Cladophialophora carrionii, 100% growth inhibition, read-out: MIC) was 2.5 µM (≈ 0.738 µg/mL); in data set [13] (Exophiala dermatitidis, ATCC28869, 100% growth inhibition, read-out: MIC), 20 µM (≈ 5.91 µg/mL); in data set [14] (Phialophora verrucosa, 100% growth inhibition, read-out: MIC) it was 5 µM (≈ 1.48 µg/mL); in [15] (100% growth inhibition, read-out: MIC), 5 µM (≈ 1.48 µg/mL); in [16] (Exophiala heteromorpha, ATCC28180, 100% growth inhibition, read-out: MIC), 5 µM (≈ 1.48 µg/mL); in data set [17] (Fonsecaea pedrosoi, 100% growth inhibition, read-out: MIC), 5 µM (≈ 1.48 µg/mL). In addition, the MIC amounted to 5 µM (≈ 1.48 µg/mL) in [18] (Fonsecaea nubica, 100% growth inhibition, read-out: MIC) and 2.5 µM (≈ 0.738 µg/mL) in data set [19] (Fonsecaea monophora, 100% growth inhibition, read-out: MIC). Further, the “CC50 (translated from >100 μg/mL)” value in the data set with VERO cells (ATCC CCL-81) is roughly 338.98 µM.
